Tested on: virus-specific CD8 T cells
Parameters: species or system mice
Conditions: mouse, in vivo

With Nc1ncn([C@H]2C[C@H](O)[C@@H](CO)O2)c(=O)n1 [DAC, 5-aza-2′-deoxycytidine] as the molecule, how does the “Ki67+ virus-specific CD8 T cells” value read?
Its value is “significant increase”.

What about the T cell expansion of the same molecule?
Its T cell expansion is “did not observe an enhancement”.

And the “expansion of virus-specific T cells in spleen, lungs and liver” value?
The value was “enhanced expansion”.

And the “quantity of gp33-specific CD8 T cells in the peripheral blood” value?
Its value is “striking increase”.
